# Source: patent US10941138B2, “Quinoline and isoquinoline derivatives for treating pain and pain related conditions” (ESTEVE PHARMACEUTICALS, S.A., priority 2016, dated 2021)
# Target: human α2δ-1 subunit of Cav2.2 calcium channel (Homo sapiens (Human), UniProt P54289)
# Test: Binding assay to human α2δ-1 subunit of Cav2.2 calcium channel ([3H]-Gabapentin)
# Details: Table 1, human α2δ-1 enriched membranes, read-out: Ki (nM) alpha2delta Hum
# Procedure: Binding Assay to Human α2δ-1 Subunit of Cav2.2 Calcium Channel.
# Human α2δ-1 enriched membranes (2.5 μg) were incubated with 15 nM of radiolabeled [3H]-Gabapentin in assay buffer containing Hepes-KOH 10 mM, pH 7.4.
# NSB (non specific binding) was measured by adding 10 μM pregabalin. The binding of the test compound was measured at five different concentrations. After 60 min incubation at 27° C., binding reaction was terminated by filtering through Multiscreen GF/C (Millipore) presoaked in 0.5% polyethyleneimine in Vacuum Manifold Station, followed by 3 washes with ice-cold filtration buffer containing 50 mM Tris-HCl, pH 7.4. Filter plates were dried at 60° C. for 1 h and 30 μl of scintillation cocktail were added to each well before radioactivity reading.
# Readings were performed in a Trilux 1450 Microbeta radioactive counter (Perkin Elmer).
# human α2δ-1 subunit of Cav2.2 calcium channel, sequence (P54289 25-1103): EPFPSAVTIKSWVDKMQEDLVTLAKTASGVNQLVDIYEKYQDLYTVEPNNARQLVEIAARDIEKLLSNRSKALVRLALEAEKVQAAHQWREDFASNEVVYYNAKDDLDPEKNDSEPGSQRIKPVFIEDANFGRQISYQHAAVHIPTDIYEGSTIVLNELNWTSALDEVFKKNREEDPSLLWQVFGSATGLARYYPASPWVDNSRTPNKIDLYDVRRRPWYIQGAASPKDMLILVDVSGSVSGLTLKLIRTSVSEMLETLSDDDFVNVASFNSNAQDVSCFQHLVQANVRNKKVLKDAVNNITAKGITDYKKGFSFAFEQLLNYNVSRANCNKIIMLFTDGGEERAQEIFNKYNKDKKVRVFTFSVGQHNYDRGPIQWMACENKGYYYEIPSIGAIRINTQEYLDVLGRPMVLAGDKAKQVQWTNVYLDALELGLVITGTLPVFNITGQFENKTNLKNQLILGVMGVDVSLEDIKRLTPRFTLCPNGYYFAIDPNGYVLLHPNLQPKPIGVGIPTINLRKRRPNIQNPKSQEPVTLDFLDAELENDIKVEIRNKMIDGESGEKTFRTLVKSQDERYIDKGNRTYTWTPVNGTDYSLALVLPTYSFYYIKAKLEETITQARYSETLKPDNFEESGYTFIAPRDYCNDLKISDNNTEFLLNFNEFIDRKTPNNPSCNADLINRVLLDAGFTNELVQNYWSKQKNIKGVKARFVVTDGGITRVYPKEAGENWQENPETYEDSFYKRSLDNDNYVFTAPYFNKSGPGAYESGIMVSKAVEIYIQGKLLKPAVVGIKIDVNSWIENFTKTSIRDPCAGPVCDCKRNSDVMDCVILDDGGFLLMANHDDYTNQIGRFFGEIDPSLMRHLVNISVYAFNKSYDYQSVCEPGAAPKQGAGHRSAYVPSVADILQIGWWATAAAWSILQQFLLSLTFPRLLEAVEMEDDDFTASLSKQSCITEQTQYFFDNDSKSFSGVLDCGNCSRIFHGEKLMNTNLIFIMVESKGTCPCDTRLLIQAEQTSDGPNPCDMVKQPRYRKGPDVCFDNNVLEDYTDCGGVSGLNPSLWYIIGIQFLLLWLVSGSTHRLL
row,Compound,Ki
1,"CNCC[C@H](Oc1cccc2ccncc12)c1ccc(F)s1 [Example 80, (S)-3-(5-Fluorothiophen-2-yl)-3-(isoquinolin-8-yloxy)-N-methylpropan-1-amine]",500 to 3000 nM
2,"CCNCC[C@@H](Oc1cccc2cnccc12)c1cccs1 [Example 88, (R)-N-ethyl-3-(isoquinolin-5-yloxy)-3-(thiophen-2-yl)propan-1-amine]",100 to 500 nM
3,"CN(C)CCC(Oc1nccc2ccccc12)c1cccs1 (stereo not shown) [Example 8, 3-(isoquinolin-1-yloxy)-N,N-dimethyl-3-(thiophen-2-yl)propan-1-amine]",≥ 3000 nM
4,"CNCCC(Oc1cccc2cnccc12)c1ccc(C(F)(F)F)nc1 (stereo not shown) [Example 28, 3-(isoquinolin-5-yloxy)-N-methyl-3-(6-(trifluoromethyl)pyridin-3-yl)propan-1-amine]",≥ 3000 nM
5,"CNCC[C@H](Oc1ccc2cnccc2c1)c1cccs1 [Example 55, (S)-3-(isoquinolin-6-yloxy)-N-methyl-3-(thiophen-2-yl)propan-1-amine]",500 to 3000 nM
6,"CNCCC(Oc1cccc2ccncc12)c1ccccn1 (stereo not shown) [Example 22, 3-(isoquinolin-8-yloxy)-N-methyl-3-(pyridin-2-yl)propan-1-amine]",≥ 3000 nM
7,"CNCC[C@@H](Oc1cccc2c(C)nccc12)c1cccs1 [Example 59, (R)-N-methyl-3-((1-methylisoquinolin-5-yl)oxy)-3-(thiophen-2-yl)propan-1-amine]",< 100 nM
8,"CNCC[C@H](Oc1cccc2ncccc12)c1nccs1 [Example 76, (S)—N-Methyl-3-(quinolin-5-yloxy)-3-(thiazol-2-yl)propan-1-amine]",100 to 500 nM
9,"CCNCCC(Oc1cccc2cnccc12)c1cccs1 (stereo not shown) [Example 5, N-ethyl-3-(isoquinolin-5-yloxy)-3-(thiophen-2-yl)propan-1-amine]",< 100 nM
10,"CNCC[C@H](Oc1cccc2ccnc(C)c12)c1cccs1 [Example 64, (S)-N-methyl-3-((1-methylisoquinolin-8-yl)oxy)-3-(thiophen-2-yl)propan-1-amine]",≥ 3000 nM
11,"CN(C)CCC(Oc1cccc2cnccc12)c1cccs1 (stereo not shown) [Example 43, 3-(isoquinolin-5-yloxy)-N,N-dimethyl-3-(thiophen-2-yl)propan-1-amine]",500 to 3000 nM
12,"CNCCC(Oc1cccc2c(C(N)=O)nccc12)c1cccs1 (stereo not shown) [Example 16, 5-(3-(methylamino)-1-(thiophen-2-yl)propoxy)isoquinoline-1-carboxamide]",< 100 nM
13,"CNCCC(Oc1cccc2ccncc12)c1ccncc1 (stereo not shown) [Example 27, 3-(isoquinolin-8-yloxy)-N-methyl-3-(pyridin-4-yl)propan-1-amine]",≥ 3000 nM
14,"CCNCC[C@H](Oc1cccc2cnccc12)c1cccs1 [Example 92, (S)-N-ethyl-3-(isoquinolin-5-yloxy)-3-(thiophen-2-yl)propan-1-amine]",≥ 3000 nM
15,"CNCC[C@H](Oc1cnc2ccccc2c1)c1cccs1 [Example 95, (S)-N-methyl-3-(quinolin-3-yloxy)-3-(thiophen-2-yl)propan-1-amine]",≥ 3000 nM
16,"CNCCC(Oc1cccc2ncccc12)C1CCOCC1 (stereo not shown) [Example 20, N-methyl-3-(quinolin-5-yloxy)-3-(tetrahydro-2H-pyran-4-yl)propan-1-amine]",≥ 3000 nM
17,"CNCCC(Oc1cccc2ncccc12)c1ccc(C(F)(F)F)nc1 (stereo not shown) [Example 40, N-methyl-3-(quinolin-5-yloxy)-3-(6-(trifluoromethyl)pyridin-3-yl)propan-1-amine]",≥ 3000 nM
18,"CNCCC(Oc1cccc2ncccc12)c1cccnc1 (stereo not shown) [Example 36, N-methyl-3-(pyridin-3-yl)-3-(quinolin-5-yloxy)propan-1-amine]",≥ 3000 nM
19,"CNCCC(Oc1cccc2ccncc12)c1cccc(C(F)(F)F)n1 (stereo not shown) [Example 24, 3-(isoquinolin-8-yloxy)-N-methyl-3-(6-(trifluoromethyl)pyridin-2-yl)propan-1-amine]",≥ 3000 nM
20,"CNCC[C@@H](Oc1cccc2ncccc12)c1ccsc1 [Example 63, (R)-N-methyl-3-(quinolin-5-yloxy)-3-(thiophen-3-yl)propan-1-amine]",100 to 500 nM
21,"CNCCC(Oc1cccc2ccncc12)c1cccnc1 (stereo not shown) [Example 21, 3-(isoquinolin-8-yloxy)-N-methyl-3-(pyridin-3-yl)propan-1-amine]",≥ 3000 nM
22,"CCNCC[C@@H](Oc1cccc2c(C#N)nccc12)c1cccs1 [Example 89, (R)-5-(3-(ethylamino)-1-(thiophen-2-yl)propoxy)isoquinoline-1-carbonitrile]",< 100 nM
23,"CNCCC(Oc1ccc2cccnc2c1)c1cccs1 (stereo not shown) [Example 73, N-methyl-3-(quinolin-7-yloxy)-3-(thiophen-2-yl)propan-1-amine]",500 to 3000 nM

row,Compound,Ki
1,"CNCCC(Oc1cccc2ncccc12)c1ncc(C)s1 (stereo not shown) [Example 34, N-methyl-3-(5-methylthiazol-2-yl)-3-(quinolin-5-yloxy)propan-1-amine]",500 to 3000 nM
2,"CCNCC[C@H](Oc1cccc2c(C#N)nccc12)c1cccs1 [Example 91, (S)-5-(3-(ethylamino)-1-(thiophen-2-yl)propoxy)isoquinoline-1-carbonitrile]",100 to 500 nM
3,"CNCCC(Oc1cccc2cnccc12)c1ccccn1 (stereo not shown) [Example 23, 3-(isoquinolin-5-yloxy)-N-methyl-3-(pyridin-2-yl)propan-1-amine]",≥ 3000 nM
4,"CNCCC(Oc1cccc2cnccc12)c1cccc(C(F)(F)F)n1 (stereo not shown) [Example 37, 3-(isoquinolin-5-yloxy)-N-methyl-3-(6-(trifluoromethyl)pyridin-2-yl)propan-1-amine]",≥ 3000 nM
5,"CNCC[C@@H](Oc1cccc2ncccc12)c1nccs1 [Example 77, (R)—N-methyl-3-(quinolin-5-yloxy)-3-(thiazol-2-yl)propan-1-amine]",500 to 3000 nM
6,"CNCCC(Oc1cccc2ncccc12)c1ccsc1 (stereo not shown) [Example 57, N-methyl-3-(quinolin-5-yloxy)-3-(thiophen-3-yl)propan-1-amine]",100 to 500 nM
7,"c1ccc(CNCCC(Oc2cccc3cnccc23)c2cccs2)cc1 (stereo not shown) [Example 6, N-benzyl-3-(isoquinolin-5-yloxy)-3-(thiophen-2-yl)propan-1-amine]",≥ 3000 nM
8,"CNCCC(Oc1ccnc2ccccc12)c1cccs1 (stereo not shown) [Example 4, N-methyl-3-(quinolin-4-yloxy)-3-(thiophen-2-yl)propan-1-amine]",≥ 3000 nM
9,"CNCCC(Oc1cccc2ccncc12)c1nccs1 (stereo not shown) [Example 70, 3-(Isoquinolin-8-yloxy)-N-methyl-3-(thiazol-2-yl)propan-1-amine]",≥ 3000 nM
10,"CCNCC[C@@H](Oc1cccc2ncccc12)c1cccs1 [Example 93, (R)-N-ethyl-3-(quinolin-5-yloxy)-3-(thiophen-2-yl)propan-1-amine]",100 to 500 nM
11,"CNCCC(Oc1cccc2ncccc12)c1nc(C)cs1 (stereo not shown) [Example 32, N-methyl-3-(4-methylthiazol-2-yl)-3-(quinolin-5-yloxy)propan-1-amine]",100 to 500 nM
12,"CNCCC(Oc1cccc2c(C#N)nccc12)c1cccs1 (stereo not shown) [Example 75, 5-(3-(Methylamino)-1-(thiophen-2-yl)propoxy)isoquinoline-1-carbonitrile]",100 to 500 nM
13,"CNCCC(Oc1cccc2ncccc12)c1cccc(C(F)(F)F)n1 (stereo not shown) [Example 38, N-methyl-3-(quinolin-5-yloxy)-3-(6-(trifluoromethyl)pyridin-2-yl)propan-1-amine]",≥ 3000 nM
14,"CNCCC(Oc1cccc2ncccc12)c1ccccn1 (stereo not shown) [Example 33, N-methyl-3-(pyridin-2-yl)-3-(quinolin-5-yloxy)propan-1-amine]",≥ 3000 nM
15,"CNCCC(Oc1cccc2cnccc12)c1cncc(Cl)c1 (stereo not shown) [Example 26, 3-(5-chloropyridin-3-yl)-3-(isoquinolin-5-yloxy)-N-methylpropan-1-amine]",≥ 3000 nM
16,"CNCCC(Oc1cccc2cnccc12)c1cc(C(F)(F)F)ccn1 (stereo not shown) [Example 29, 3-(isoquinolin-5-yloxy)-N-methyl-3-(4-(trifluoromethyl)pyridin-2-yl)propan-1-amine]",≥ 3000 nM
17,"CNCC[C@@H](Oc1ccc2ncccc2c1)c1cccs1 [Example 7, (R)—N-Methyl-3-(quinolin-6-yloxy)-3-(thiophen-2-yl)propan-1-amine]",≥ 3000 nM
18,"CNCCC(Oc1cccc2ncccc12)c1cc(C(F)(F)F)ccn1 (stereo not shown) [Example 31, N-methyl-3-(quinolin-5-yloxy)-3-(4-(trifluoromethyl)pyridin-2-yl)propan-1-amine]",≥ 3000 nM
19,"CNCCC(Oc1cccc2ccncc12)C1CCOCC1 (stereo not shown) [Example 19, 3-(isoquinolin-8-yloxy)-N-methyl-3-(tetrahydro-2H-pyran-4-yl)propan-1-amine]",≥ 3000 nM
20,"CNCCC(Oc1cccc2ccncc12)c1ccc(C(F)(F)F)nc1 (stereo not shown) [Example 39, 3-(isoquinolin-8-yloxy)-N-methyl-3-(6-(trifluoromethyl)pyridin-3-yl)propan-1-amine]",≥ 3000 nM
21,"CNCCC(Oc1cccc2ncccc12)c1ccncc1 (stereo not shown) [Example 35, N-methyl-3-(pyridin-4-yl)-3-(quinolin-5-yloxy)propan-1-amine]",≥ 3000 nM
22,"CNCC[C@@H](Oc1cccc2nc(C)cc(C)c12)c1cccs1 [Example 66, (R)-3-((2,4-dimethylquinolin-5-yl)oxy)-N-methyl-3-(thiophen-2-yl)propan-1-amine]",< 100 nM
23,"CCNCC[C@H](Oc1cccc2ncccc12)c1cccs1 [Example 90, (S)-N-ethyl-3-(quinolin-5-yloxy)-3-(thiophen-2-yl)propan-1-amine]",100 to 500 nM
